Assay results from ChEMBL document CHEMBL1909046, “DrugMatrix in vitro pharmacology data”.

Test system: not listed separately
Test: DRUGMATRIX: ATPase, Na+/K+ enzyme inhibition (substrate: ATP)
Format: tissue-based, Sus scrofa, Heart
Conditions: Not Active = under 50% inhibition at 10 µM

Row | Compound | IC50 | Ki
1 | COc1cc2c(c3oc(=O)c4c(c13)CCC4=O)[C@@H]1C=CO[C@@H]1O2 [AFLATOXIN] | Not Active | Not Active
2 | N=C(N)NC(=O)c1nc(Cl)c(N)nc1N [AMILORIDE] | Not Active | Not Active
3 | Cc1cc(=O)n(-c2ccccc2)n1C [ANTIPYRINE] | Not Active | Not Active
4 | CN1C(=O)COc2c(C(=O)NC3CN4CCC3CC4)cc(Cl)cc21 (stereo unspecified) [AZASETRON] | Not Active | Not Active
5 | C[C@H]1C[C@H]2[C@@H]3CCC4=CC(=O)C=C[C@]4(C)[C@@]3(Cl)[C@@H](O)C[C@]2(C)[C@@]1(O)C(=O)CO [BECLOMETHASONE] | Not Active | Not Active
6 | CCOC(=O)[C@H](CCc1ccccc1)N[C@H]1CCc2ccccc2N(CC(=O)O)C1=O [BENAZEPRIL] | Not Active | Not Active
7 | Nc1c(CC(=O)O)cccc1C(=O)c1ccc(Br)cc1 [BROMFENAC] | Not Active | Not Active
8 | CCCCN1CCCCC1C(=O)Nc1c(C)cccc1C.Cl (stereo unspecified) [BUPIVACAINE HYDROCHLORIDE] | Not Active | Not Active
9 | O=C1CC2(CCCC2)CC(=O)N1CCCCN1CCN(c2ncccn2)CC1 [BUSPIRONE] | Not Active | Not Active
10 | C[C@@]12C(=O)OC(=O)[C@]1(C)[C@H]1CC[C@@H]2O1 [CANTHARIDIN] | Not Active | Not Active

Molecular target: 5-hydroxytryptamine receptor 4 (Cavia porcellus, UniProt O70528); also: in other assays of this panel Not Active means under 50% inhibition at 10 µM
Format: cell membranes, Dunkin-Hartley, Striatum, Membrane
Conditions: not given

Sequence of 5-hydroxytryptamine receptor 4 (O70528 whole entry): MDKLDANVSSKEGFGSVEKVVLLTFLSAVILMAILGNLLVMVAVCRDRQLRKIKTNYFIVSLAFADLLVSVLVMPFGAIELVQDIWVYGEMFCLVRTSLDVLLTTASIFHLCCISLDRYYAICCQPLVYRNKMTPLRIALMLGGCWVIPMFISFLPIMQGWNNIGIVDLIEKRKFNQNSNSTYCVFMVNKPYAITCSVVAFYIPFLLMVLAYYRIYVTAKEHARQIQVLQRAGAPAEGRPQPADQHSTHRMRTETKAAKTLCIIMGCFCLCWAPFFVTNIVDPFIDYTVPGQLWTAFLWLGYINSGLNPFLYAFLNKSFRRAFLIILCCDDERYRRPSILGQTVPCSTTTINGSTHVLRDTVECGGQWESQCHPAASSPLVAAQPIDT

Row | Compound | IC50 | Ki
11 | COc1cc2c(c3oc(=O)c4c(c13)CCC4=O)[C@@H]1C=CO[C@@H]1O2 [AFLATOXIN] | Not Active | Not Active
12 | N=C(N)NC(=O)c1nc(Cl)c(N)nc1N [AMILORIDE] | Not Active | –
13 | Cc1cc(=O)n(-c2ccccc2)n1C [ANTIPYRINE] | Not Active | –
14 | CN1C(=O)COc2c(C(=O)NC3CN4CCC3CC4)cc(Cl)cc21 (stereo unspecified) [AZASETRON] | Not Active | –
15 | C[C@H]1C[C@H]2[C@@H]3CCC4=CC(=O)C=C[C@]4(C)[C@@]3(Cl)[C@@H](O)C[C@]2(C)[C@@]1(O)C(=O)CO [BECLOMETHASONE] | Not Active | –
16 | CCOC(=O)[C@H](CCc1ccccc1)N[C@H]1CCc2ccccc2N(CC(=O)O)C1=O [BENAZEPRIL] | Not Active | –
17 | Nc1c(CC(=O)O)cccc1C(=O)c1ccc(Br)cc1 [BROMFENAC] | Not Active | –
18 | CCCCN1CCCCC1C(=O)Nc1c(C)cccc1C.Cl (stereo unspecified) [BUPIVACAINE HYDROCHLORIDE] | Not Active | –
19 | O=C1CC2(CCCC2)CC(=O)N1CCCCN1CCN(c2ncccn2)CC1 [BUSPIRONE] | Not Active | –
20 | C[C@@]12C(=O)OC(=O)[C@]1(C)[C@H]1CC[C@@H]2O1 [CANTHARIDIN] | Not Active | –

Molecular target: Beta-1 adrenergic receptor (Homo sapiens, UniProt P08588)
Test: DRUGMATRIX: Adrenergic beta1 radioligand binding (ligand: [125I] Cyanopindolol)
Format: cell membranes, CHO-K1, Membrane
Conditions: cho-k1; Not Active = under 50% inhibition at 10 µM

Sequence of Beta-1 adrenergic receptor (P08588 whole entry): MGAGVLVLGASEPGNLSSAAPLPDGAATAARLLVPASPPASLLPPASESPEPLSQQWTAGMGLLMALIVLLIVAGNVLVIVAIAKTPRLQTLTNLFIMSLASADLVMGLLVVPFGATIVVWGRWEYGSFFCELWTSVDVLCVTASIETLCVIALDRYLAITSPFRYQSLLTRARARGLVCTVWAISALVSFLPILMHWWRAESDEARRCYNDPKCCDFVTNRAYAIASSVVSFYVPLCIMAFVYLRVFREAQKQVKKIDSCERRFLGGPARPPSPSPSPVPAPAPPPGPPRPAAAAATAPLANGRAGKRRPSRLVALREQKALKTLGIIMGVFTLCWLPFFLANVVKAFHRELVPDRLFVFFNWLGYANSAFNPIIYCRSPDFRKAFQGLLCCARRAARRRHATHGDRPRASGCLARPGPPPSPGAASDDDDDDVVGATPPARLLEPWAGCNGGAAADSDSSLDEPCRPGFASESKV

Row | Compound | IC50 | Ki
21 | COc1cc2c(c3oc(=O)c4c(c13)CCC4=O)[C@@H]1C=CO[C@@H]1O2 [AFLATOXIN] | Not Active | Not Active
22 | N=C(N)NC(=O)c1nc(Cl)c(N)nc1N [AMILORIDE] | Not Active | –
23 | Cc1cc(=O)n(-c2ccccc2)n1C [ANTIPYRINE] | Not Active | –
24 | CN1C(=O)COc2c(C(=O)NC3CN4CCC3CC4)cc(Cl)cc21 (stereo unspecified) [AZASETRON] | Not Active | –
25 | C[C@H]1C[C@H]2[C@@H]3CCC4=CC(=O)C=C[C@]4(C)[C@@]3(Cl)[C@@H](O)C[C@]2(C)[C@@]1(O)C(=O)CO [BECLOMETHASONE] | Not Active | –
26 | CCOC(=O)[C@H](CCc1ccccc1)N[C@H]1CCc2ccccc2N(CC(=O)O)C1=O [BENAZEPRIL] | Not Active | –
27 | Nc1c(CC(=O)O)cccc1C(=O)c1ccc(Br)cc1 [BROMFENAC] | Not Active | –
28 | CCCCN1CCCCC1C(=O)Nc1c(C)cccc1C.Cl (stereo unspecified) [BUPIVACAINE HYDROCHLORIDE] | Not Active | –
29 | O=C1CC2(CCCC2)CC(=O)N1CCCCN1CCN(c2ncccn2)CC1 [BUSPIRONE] | Not Active | –
30 | C[C@@]12C(=O)OC(=O)[C@]1(C)[C@H]1CC[C@@H]2O1 [CANTHARIDIN] | Not Active | –

Molecular target: T1, Neuropeptide Y receptor type 1 (Homo sapiens, UniProt P25929); also: in other assays of this panel Not Active means under 50% inhibition at 10 µM
T1 sequence (P25929 whole entry): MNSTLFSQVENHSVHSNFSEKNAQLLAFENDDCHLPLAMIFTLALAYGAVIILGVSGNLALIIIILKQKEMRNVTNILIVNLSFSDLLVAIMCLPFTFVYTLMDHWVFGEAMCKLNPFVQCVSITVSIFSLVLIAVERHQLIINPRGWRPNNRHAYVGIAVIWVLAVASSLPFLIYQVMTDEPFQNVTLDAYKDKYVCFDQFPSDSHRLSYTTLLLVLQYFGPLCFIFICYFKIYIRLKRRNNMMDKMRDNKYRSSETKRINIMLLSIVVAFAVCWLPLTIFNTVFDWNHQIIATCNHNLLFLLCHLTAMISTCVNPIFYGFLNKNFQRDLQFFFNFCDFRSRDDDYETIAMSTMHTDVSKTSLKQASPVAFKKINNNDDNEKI
Format: cell membranes, Membrane
Conditions: sk-n-mc

Row | Compound | IC50 | Ki
31 | COc1cc2c(c3oc(=O)c4c(c13)CCC4=O)[C@@H]1C=CO[C@@H]1O2 [AFLATOXIN] | Not Active | Not Active
32 | N=C(N)NC(=O)c1nc(Cl)c(N)nc1N [AMILORIDE] | Not Active | –
33 | Cc1cc(=O)n(-c2ccccc2)n1C [ANTIPYRINE] | Not Active | –
34 | CN1C(=O)COc2c(C(=O)NC3CN4CCC3CC4)cc(Cl)cc21 (stereo unspecified) [AZASETRON] | Not Active | –
35 | C[C@H]1C[C@H]2[C@@H]3CCC4=CC(=O)C=C[C@]4(C)[C@@]3(Cl)[C@@H](O)C[C@]2(C)[C@@]1(O)C(=O)CO [BECLOMETHASONE] | Not Active | –
36 | CCOC(=O)[C@H](CCc1ccccc1)N[C@H]1CCc2ccccc2N(CC(=O)O)C1=O [BENAZEPRIL] | Not Active | –
37 | Nc1c(CC(=O)O)cccc1C(=O)c1ccc(Br)cc1 [BROMFENAC] | Not Active | –
38 | CCCCN1CCCCC1C(=O)Nc1c(C)cccc1C.Cl (stereo unspecified) [BUPIVACAINE HYDROCHLORIDE] | Not Active | –
39 | O=C1CC2(CCCC2)CC(=O)N1CCCCN1CCN(c2ncccn2)CC1 [BUSPIRONE] | Not Active | –
40 | C[C@@]12C(=O)OC(=O)[C@]1(C)[C@H]1CC[C@@H]2O1 [CANTHARIDIN] | Not Active | –

Molecular target: Melanocortin receptor 5 (Homo sapiens, UniProt P33032); also: in other assays of this panel Not Active means under 50% inhibition at 10 µM
Format: cell membranes, Membrane
Conditions: hek293

Sequence of Melanocortin receptor 5 (P33032 whole entry): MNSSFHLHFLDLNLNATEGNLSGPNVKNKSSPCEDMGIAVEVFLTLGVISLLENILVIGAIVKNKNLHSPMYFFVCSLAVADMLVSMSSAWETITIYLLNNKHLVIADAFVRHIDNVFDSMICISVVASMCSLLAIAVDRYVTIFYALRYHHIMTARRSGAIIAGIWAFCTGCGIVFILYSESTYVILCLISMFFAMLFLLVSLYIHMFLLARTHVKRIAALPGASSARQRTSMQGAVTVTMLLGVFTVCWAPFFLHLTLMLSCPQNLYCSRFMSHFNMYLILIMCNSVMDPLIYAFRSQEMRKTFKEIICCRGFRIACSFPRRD

Row | Compound | IC50 | Ki
41 | COc1cc2c(c3oc(=O)c4c(c13)CCC4=O)[C@@H]1C=CO[C@@H]1O2 [AFLATOXIN] | Not Active | Not Active
42 | N=C(N)NC(=O)c1nc(Cl)c(N)nc1N [AMILORIDE] | Not Active | –
43 | Cc1cc(=O)n(-c2ccccc2)n1C [ANTIPYRINE] | Not Active | –
44 | CN1C(=O)COc2c(C(=O)NC3CN4CCC3CC4)cc(Cl)cc21 (stereo unspecified) [AZASETRON] | Not Active | –
45 | C[C@H]1C[C@H]2[C@@H]3CCC4=CC(=O)C=C[C@]4(C)[C@@]3(Cl)[C@@H](O)C[C@]2(C)[C@@]1(O)C(=O)CO [BECLOMETHASONE] | Not Active | –
46 | CCOC(=O)[C@H](CCc1ccccc1)N[C@H]1CCc2ccccc2N(CC(=O)O)C1=O [BENAZEPRIL] | Not Active | –
47 | Nc1c(CC(=O)O)cccc1C(=O)c1ccc(Br)cc1 [BROMFENAC] | Not Active | –
48 | CCCCN1CCCCC1C(=O)Nc1c(C)cccc1C.Cl (stereo unspecified) [BUPIVACAINE HYDROCHLORIDE] | Not Active | –
49 | O=C1CC2(CCCC2)CC(=O)N1CCCCN1CCN(c2ncccn2)CC1 [BUSPIRONE] | Not Active | –
50 | C[C@@]12C(=O)OC(=O)[C@]1(C)[C@H]1CC[C@@H]2O1 [CANTHARIDIN] | Not Active | –

Molecular target: Tyrosine-protein kinase Lck (Homo sapiens, UniProt P06239)
Test: DRUGMATRIX: Protein Tyrosine Kinase, LCK enzyme inhibition (substrate: Poly(Glu:Tyr))
Format: cell-based, Insect cells
Conditions: insect cells; Not Active = under 50% inhibition at 10 µM

Sequence of Tyrosine-protein kinase Lck (P06239 whole entry): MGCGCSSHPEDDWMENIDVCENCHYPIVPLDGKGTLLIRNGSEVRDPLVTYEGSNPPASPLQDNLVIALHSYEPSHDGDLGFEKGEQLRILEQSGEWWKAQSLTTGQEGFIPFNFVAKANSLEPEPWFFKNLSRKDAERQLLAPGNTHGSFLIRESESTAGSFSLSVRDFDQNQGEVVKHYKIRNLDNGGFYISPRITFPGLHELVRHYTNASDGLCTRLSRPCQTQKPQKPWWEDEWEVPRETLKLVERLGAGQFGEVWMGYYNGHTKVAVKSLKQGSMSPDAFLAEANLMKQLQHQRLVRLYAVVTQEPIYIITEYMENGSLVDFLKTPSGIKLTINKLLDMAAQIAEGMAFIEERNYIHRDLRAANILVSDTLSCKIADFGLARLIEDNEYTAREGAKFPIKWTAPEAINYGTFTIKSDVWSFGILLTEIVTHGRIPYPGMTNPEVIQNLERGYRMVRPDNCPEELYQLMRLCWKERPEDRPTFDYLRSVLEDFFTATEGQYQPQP

Row | Compound | IC50 | Ki
51 | COc1cc2c(c3oc(=O)c4c(c13)CCC4=O)[C@@H]1C=CO[C@@H]1O2 [AFLATOXIN] | Not Active | Not Active
52 | N=C(N)NC(=O)c1nc(Cl)c(N)nc1N [AMILORIDE] | Not Active | –
53 | Cc1cc(=O)n(-c2ccccc2)n1C [ANTIPYRINE] | Not Active | –
54 | CN1C(=O)COc2c(C(=O)NC3CN4CCC3CC4)cc(Cl)cc21 (stereo unspecified) [AZASETRON] | Not Active | –
55 | C[C@H]1C[C@H]2[C@@H]3CCC4=CC(=O)C=C[C@]4(C)[C@@]3(Cl)[C@@H](O)C[C@]2(C)[C@@]1(O)C(=O)CO [BECLOMETHASONE] | Not Active | –
56 | CCOC(=O)[C@H](CCc1ccccc1)N[C@H]1CCc2ccccc2N(CC(=O)O)C1=O [BENAZEPRIL] | Not Active | –
57 | Nc1c(CC(=O)O)cccc1C(=O)c1ccc(Br)cc1 [BROMFENAC] | Not Active | –
58 | CCCCN1CCCCC1C(=O)Nc1c(C)cccc1C.Cl (stereo unspecified) [BUPIVACAINE HYDROCHLORIDE] | Not Active | –
59 | O=C1CC2(CCCC2)CC(=O)N1CCCCN1CCN(c2ncccn2)CC1 [BUSPIRONE] | Not Active | –
60 | C[C@@]12C(=O)OC(=O)[C@]1(C)[C@H]1CC[C@@H]2O1 [CANTHARIDIN] | Not Active | –

Molecular target: T2, Adenosine receptor A1 (Homo sapiens, UniProt P30542);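 also: radioligand binding assay at the adenosine A1 receptor, with DPCPX serving as the labelled ligand; in other assays of this panel Not Active means under 50% inhibition at 10 µM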
T2 sequence (P30542 whole entry): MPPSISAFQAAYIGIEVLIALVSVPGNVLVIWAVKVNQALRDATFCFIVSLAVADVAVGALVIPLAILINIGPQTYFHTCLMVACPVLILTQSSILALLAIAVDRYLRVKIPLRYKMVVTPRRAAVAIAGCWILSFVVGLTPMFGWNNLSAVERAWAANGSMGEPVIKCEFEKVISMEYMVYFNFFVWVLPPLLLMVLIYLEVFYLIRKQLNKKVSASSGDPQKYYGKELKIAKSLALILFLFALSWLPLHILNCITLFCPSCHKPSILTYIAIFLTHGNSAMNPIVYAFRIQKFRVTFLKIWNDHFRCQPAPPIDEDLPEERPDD
Format: cell membranes, Membrane
Conditions: cho

Row | Compound | IC50 | Ki
61 | COc1cc2c(c3oc(=O)c4c(c13)CCC4=O)[C@@H]1C=CO[C@@H]1O2 [AFLATOXIN] | Not Active | Not Active
62 | N=C(N)NC(=O)c1nc(Cl)c(N)nc1N [AMILORIDE] | Not Active | –
63 | Cc1cc(=O)n(-c2ccccc2)n1C [ANTIPYRINE] | Not Active | –
64 | CN1C(=O)COc2c(C(=O)NC3CN4CCC3CC4)cc(Cl)cc21 (stereo unspecified) [AZASETRON] | Not Active | –
65 | C[C@H]1C[C@H]2[C@@H]3CCC4=CC(=O)C=C[C@]4(C)[C@@]3(Cl)[C@@H](O)C[C@]2(C)[C@@]1(O)C(=O)CO [BECLOMETHASONE] | Not Active | –
66 | CCOC(=O)[C@H](CCc1ccccc1)N[C@H]1CCc2ccccc2N(CC(=O)O)C1=O [BENAZEPRIL] | Not Active | –
67 | Nc1c(CC(=O)O)cccc1C(=O)c1ccc(Br)cc1 [BROMFENAC] | Not Active | –
68 | CCCCN1CCCCC1C(=O)Nc1c(C)cccc1C.Cl (stereo unspecified) [BUPIVACAINE HYDROCHLORIDE] | Not Active | –
69 | O=C1CC2(CCCC2)CC(=O)N1CCCCN1CCN(c2ncccn2)CC1 [BUSPIRONE] | Not Active | –
70 | C[C@@]12C(=O)OC(=O)[C@]1(C)[C@H]1CC[C@@H]2O1 [CANTHARIDIN] | Not Active | –
